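All cell lines were grown in 96-well plates and treated with compound for 48 hours. The concentration for 50% growth inhibition is given as GI50.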 Activity calls are given as the source filed them. Rule as the data show it: active = GI50 up to about 1.1 µM and inactive = higher.
Legend:
Assay in all cases: NCI-60 cell line screen, 48 h
DMS-273 = tested on: DMS-273
786-0 = tested on: 786-0
SK-OV-3 = tested on: SK-OV-3
SF-268 = tested on: SF-268
IGROV-1 = tested on: IGROV-1
UACC-62 = tested on: UACC-62
HOP-62 = tested on: HOP-62
SR = tested on: SR
HCT-15 = tested on: HCT-15
CAKI-1 = tested on: CAKI-1
XF498 = tested on: XF498
OVCAR-4 = tested on: OVCAR-4
SW-620 = tested on: SW-620
UACC-257 = tested on: UACC-257
OVCAR-3 = tested on: OVCAR-3
HCC 2998 = tested on: HCC 2998
NCI-H460 = tested on: NCI-H460
HT-29 = tested on: HT-29
LOX IMVI = tested on: LOX IMVI
SF-539 = tested on: SF-539
NCI-H23 = tested on: NCI-H23
RXF 393 = tested on: RXF 393
OVCAR-8 = tested on: OVCAR-8
NCI-H226 = tested on: NCI-H226
RPMI-8226 = tested on: RPMI-8226
SN12C = tested on: SN12C
ACHN = tested on: ACHN
Malme-3M = tested on: Malme-3M
HOP-18 = tested on: HOP-18
TK-10 = tested on: TK-10
HL-60 = tested on: HL-60
SK-MEL-2 = tested on: SK-MEL-2
A549 = tested on: A549
LXFL 529 = tested on: LXFL 529
M14 = tested on: M14
CCRF-CEM = tested on: CCRF-CEM
KM12 = tested on: KM12
KM-20L2 = tested on: KM-20L2
SK-MEL-28 = tested on: SK-MEL-28
COLO 205 = tested on: COLO 205
DMS-114 = tested on: DMS-114
HOP-92 = tested on: HOP-92
DLD-1 = tested on: DLD-1
U-251 = tested on: U-251
SNB-75 = tested on: SNB-75
HCT-116 = tested on: HCT-116
MOLT-4 = tested on: MOLT-4
SK-MEL-5 = tested on: SK-MEL-5
SNB-78 = tested on: SNB-78
SF-295 = tested on: SF-295
SNB-19 = tested on: SNB-19
NCI-H522 = tested on: NCI-H522
UO-31 = tested on: UO-31
M19-MEL = tested on: M19-MEL
K562 = tested on: K562
EKVX = tested on: EKVX

CC(CCC[C@H](C)CO)[C@H]1[C@@H](O)C(O)C2[C@@H]3C[C@@H](O)C4(O)C[C@@H](O)CC[C@]4(C)C3CC[C@@]21C (stereo partly specified)
GI50 (DMS-273): > 100 µM (inactive)
GI50 (786-0): > 100 µM (inactive)
GI50 (SK-OV-3): > 100 µM (inactive)
GI50 (SF-268): > 100 µM (inactive)
GI50 (IGROV-1): > 100 µM (inactive)
GI50 (UACC-62): > 100 µM (inactive)
GI50 (HOP-62): > 100 µM (inactive)
GI50 (SR): 36 µM (inactive)
GI50 (HCT-15): > 100 µM
GI50 (CAKI-1): > 100 µM (inactive)
GI50 (XF498): > 100 µM (inactive)
GI50 (OVCAR-4): > 100 µM (inactive)
GI50 (SW-620): > 100 µM (inactive)
GI50 (UACC-257): > 100 µM (inactive)
GI50 (OVCAR-3): > 100 µM (inactive)
GI50 (HCC 2998): > 100 µM (inactive)
GI50 (NCI-H460): > 100 µM (inactive)
GI50 (HT-29): > 100 µM (inactive)
GI50 (LOX IMVI): > 100 µM (inactive)
GI50 (SF-539): > 100 µM (inactive)
GI50 (NCI-H23): > 100 µM (inactive)
GI50 (RXF 393): > 100 µM (inactive)
GI50 (OVCAR-8): > 100 µM (inactive)
GI50 (NCI-H226): > 100 µM (inactive)
GI50 (RPMI-8226): > 100 µM (inactive)
GI50 (SN12C): > 100 µM (inactive)
GI50 (ACHN): > 100 µM (inactive)
GI50 (Malme-3M): > 100 µM (inactive)
GI50 (HOP-18): > 100 µM (inactive)
GI50 (TK-10): > 100 µM (inactive)
GI50 (HL-60): 44.9 µM (inactive)
GI50 (SK-MEL-2): > 100 µM (inactive)
GI50 (A549): > 100 µM (inactive)
GI50 (LXFL 529): > 100 µM (inactive)
GI50 (M14): > 100 µM (inactive)
GI50 (CCRF-CEM): 40.9 µM (inactive)
GI50 (KM12): > 100 µM (inactive)
GI50 (KM-20L2): > 100 µM (inactive)
GI50 (SK-MEL-28): > 100 µM (inactive)
GI50 (COLO 205): > 100 µM (inactive)
GI50 (DMS-114): 84.7 µM (inactive)
GI50 (HOP-92): 87.3 µM (inactive)
GI50 (DLD-1): > 100 µM (inactive)
GI50 (U-251): > 100 µM (inactive)
GI50 (SNB-75): > 100 µM (inactive)
GI50 (HCT-116): > 100 µM (inactive)
GI50 (MOLT-4): > 100 µM (inactive)
GI50 (SK-MEL-5): > 100 µM (inactive)
GI50 (SNB-78): > 100 µM (inactive)
GI50 (SF-295): > 100 µM (inactive)
GI50 (SNB-19): > 100 µM (inactive)
GI50 (NCI-H522): > 100 µM (inactive)
GI50 (UO-31): > 100 µM (inactive)
GI50 (M19-MEL): > 100 µM (inactive)
GI50 (K562): 31.8 µM (inactive)
GI50 (EKVX): > 100 µM (inactive)

Reference: ChEMBL document CHEMBL1201862, “PubChem BioAssay data set” (2004)
